According to PubChem BioAssay (NCI):
Several values for one entry are separate records, joined by “and”; a condition that tells them apart may be missing. Identical values can stand only once.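 In this assay, cells in 96-well plates receive the compound at five concentrations for 48 hours. Endpoints are linearly interpolated between the surrounding concentrations. GI50 is the concentration that inhibits growth by half. TGI is the concentration that stops growth completely.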

Tests used:
Assay in all cases: NCI tumour cell line growth inhibition, 48 h
CAKI-1 renal = test system: CAKI-1 renal
SW-620 colon = test system: SW-620 colon
NCI-H460 lung = test system: NCI-H460 lung
NCI-H23 lung = test system: NCI-H23 lung
SK-MEL-2 melanoma = test system: SK-MEL-2 melanoma
NCI-H522 lung = test system: NCI-H522 lung
MOLT-4 leukemia = test system: MOLT-4 leukemia
KM12 colon = test system: KM12 colon
OVCAR-4 ovarian = test system: OVCAR-4 ovarian
HCC-2998 colon = test system: HCC-2998 colon

Row | SMILES | TGI (CAKI-1 renal) | TGI (SW-620 colon) | TGI (NCI-H460 lung) | TGI (NCI-H23 lung) | TGI (SK-MEL-2 melanoma) | TGI (NCI-H522 lung) | TGI (MOLT-4 leukemia) [µM] | TGI (KM12 colon) | TGI (OVCAR-4 ovarian) [µM] | GI50 (CAKI-1 renal) [µM] | GI50 (SW-620 colon) [µM] | GI50 (NCI-H460 lung) [µM] | GI50 (NCI-H23 lung) [µM] | GI50 (SK-MEL-2 melanoma) [µM] | GI50 (NCI-H522 lung) [µM] | GI50 (MOLT-4 leukemia) [µM] | GI50 (KM12 colon) [µM] | GI50 (HCC-2998 colon) [µM] | TGI (HCC-2998 colon) [µM] | GI50 (OVCAR-4 ovarian) [µM]
1 | CC1(C)CCC(C)(C)c2c1ccc(O)c2Cc1c(O)ccc2c1C(C)(C)CCC2(C)C | 4.2 µM | 5.05 µM | 5.77 µM | 4.11 µM | 3.19 µM | 4.04 µM | 4.71 | 3.91 µM | 3.53 | – | – | – | – | – | – | – | – | – | – | –
2 | COc1cc(OC)c(NC(=O)c2cc3ccccc3cc2O)cc1Cl | 6.68 µM | 18.8 µM | 5.82 µM | 7.61 µM | 6.14 µM | 6.12 µM | 30.3 | 11.4 µM | > 100 | 1.9 | 3.63 | 2.43 | 2.38 | 2.25 | 2.56 | 3.98 | 3.07 | 3.73 | 13.8 | 3
3 | CN(C)CCOC(c1ccccc1)c1ccccc1 | 52.6 µM and > 100 µM | 51.8 µM and > 100 µM | 46 µM and > 100 µM | 53.4 µM and > 100 µM | 51.6 µM and > 100 µM | 44.3 µM and > 100 µM | > 100 | 68.1 µM and > 100 µM | > 100 | 38.2 | 35.1 | 26.2 | 38 | 35.5 | 25.6 | – | 32.8 | – | > 100 | –
4 | CCCCCCc1nc2nc(Cl)c(Cl)nc2[nH]1 | > 100 µM | > 100 µM | > 100 µM | > 100 µM | > 100 µM | 26.8 µM | > 100 | > 100 µM | > 100 | 6.37 | > 100 | 5.59 | 3.68 | 5.58 | 2.73 | 5.21 | 6.88 | > 100 | > 100 | 6.33
5 | C=C(CN1CCN(c2cccc(C(F)(F)F)n2)CC1)c1ccc(C(=S)Nc2ccccc2N)cc1 | > 100 µM | 72.2 µM | 18.8 µM | 8.85 µM | > 100 µM | 31.4 µM | 6.4 | > 100 µM | > 100 | 3.26 | 4.07 | 2.99 | 2.81 | 4.13 | 3.01 | 2.1 | 4.04 | 5.74 | > 100 | 3.01
6 | OCC1OC(n2cnc3c(Cl)nc(Cl)cc32)C(O)C1O (configuration not stated) | > 100 µM | > 100 µM | > 100 µM | > 100 µM | – | > 100 µM | > 100 | > 100 µM | – | > 100 | > 100 | > 100 | > 100 | – | > 100 | > 100 | > 100 | > 100 | > 100 | –
7 | CSCCOC(=O)C(=[N+]=[N-])c1ccc([N+](=O)[O-])cc1 | > 100 µM | > 100 µM | > 100 µM | > 100 µM | > 100 µM | > 100 µM | > 100 | > 100 µM | > 100 | – | – | – | – | – | – | – | – | – | > 100 | –
8 | CC1OC(OC2C(CO)OC(O[C@H]3CC[C@@]4(C)C(=CC[C@H]5[C@@H]6C[C@@H]7O[C@]8(CC[C@@H](C)CN8)[C@@H](C)[C@@H]7[C@@]6(C)CC[C@@H]54)C3)C(O)C2O)C(O)C(O)C1O (some centres not stated) | > 100 µM | > 100 µM | > 100 µM | > 100 µM | > 100 µM | > 100 µM | > 100 | > 100 µM | > 100 | – | – | – | – | – | – | – | – | – | – | –
9 | O=S(=O)(Nc1cc(Cl)ccc1Cl)c1ccc(-c2cnc(C3CC3)o2)cc1 | 52.1 µM | > 100 µM | 17.4 µM | 67.2 µM | 68.8 µM | 39.2 µM | > 100 | 24.4 µM | > 100 | 0.647 | 0.814 | 0.769 | 2.84 | 11.1 | 1.75 | 1.64 | 0.704 | 3.03 | 25.2 | 11.8
10 | CCOc1ccccc1NC(=O)CCc1n[nH]c(=S)o1 | > 100 µM | > 100 µM | – | > 100 µM | > 100 µM | > 100 µM | > 100 | > 100 µM | – | – | – | – | – | – | – | – | – | – | – | –
11 | COc1cnc2c(c1)C(=O)c1c-2n(CCCNC(C)C)c(=O)c2cc(F)ccc12 | – | 1.33 µM | 0.175 µM | 0.676 µM | 1.92 µM | 0.376 µM | 0.267 | 0.851 µM | 1.7 | – | 0.122 | 0.042 | 0.176 | 0.51 | 0.0385 | 0.0362 | 0.165 | 0.397 | 1.75 | 0.301
12 | CNC(=O)Oc1cc(C)c(/C=C/c2cncc(C(=O)NC)c2)c(C)c1 | > 25 µM | > 25 µM | > 25 µM | > 25 µM | > 25 µM | > 25 µM | > 25 | > 25 µM | > 25 | > 25 | > 25 | > 25 | > 25 | > 25 | > 23.4 | > 25 | > 25 | > 25 | > 25 | > 25
13 | CCCCCCCCCCCCOC1C(C(CC(=O)N2CCN(c3cccc(C(F)(F)F)c3)CC2)NS(=O)(=O)c2cc(Cl)cc(Cl)c2)OC2OC(C)(C)OC21 (configuration not stated) | > 100 µM | > 100 µM | > 100 µM | > 100 µM | > 100 µM | > 100 µM | > 100 | > 100 µM | > 100 | > 100 | > 100 | > 100 | > 100 | > 100 | > 100 | > 100 | > 100 | > 100 | > 100 | > 100
14 | CNC(=O)c1cccc2c(Nc3ccc(NS(C)(=O)=O)cc3OC)c3cccc(C)c3nc12 | 1.41 µM | 5.5 µM | 0.816 µM | 0.58 µM | 6.37 µM | 2.51 µM | 0.0512 | 2.42 µM | 4.35 | – | – | – | – | – | – | – | – | – | 2.34 | –
15 | O=C1OC(c2ccccc2)(c2cc(Br)c(O)c(Br)c2)c2ccccc21 (configuration not stated) | > 100 µM | > 100 µM | 43.9 µM | 59.1 µM | – | – | > 100 | 60.5 µM | 78.9 | 29.2 | 27 | 19.6 | 21.3 | – | – | 30.4 | 21.9 | 19.9 | 37.8 | 22.7
